In BindingDB's records for doi:10.1021/cb500018s (Johns Hopkins University, 2014) one finds Ki data, which are given here for 20 molecules.

Settings in all cases: pH 7.5
Assay [1] has as its target Lysine-specific histone demethylase 1A (Homo sapiens, UniProt O60341). Put plainly: GST-LSD1 Enzymatic Assays.
Description: The reaction mixture contained 50 mM HEPES (pH 7.5), 0.1 mM 4-aminoantipyrine, 1 mM 3,5-dichloro-2-hydroxybenzenesulfonic acid, 0.04 mg/mL horseradish peroxidase, and appropriate concentration of buffered substrate (dimethyl-Lys-4- H3-21, ARTKme2[sequence]).
The target in assay [2] is T1, Amine oxidase [flavin-containing] A (Homo sapiens, UniProt P21397).
T1 sequence (P21397 whole entry): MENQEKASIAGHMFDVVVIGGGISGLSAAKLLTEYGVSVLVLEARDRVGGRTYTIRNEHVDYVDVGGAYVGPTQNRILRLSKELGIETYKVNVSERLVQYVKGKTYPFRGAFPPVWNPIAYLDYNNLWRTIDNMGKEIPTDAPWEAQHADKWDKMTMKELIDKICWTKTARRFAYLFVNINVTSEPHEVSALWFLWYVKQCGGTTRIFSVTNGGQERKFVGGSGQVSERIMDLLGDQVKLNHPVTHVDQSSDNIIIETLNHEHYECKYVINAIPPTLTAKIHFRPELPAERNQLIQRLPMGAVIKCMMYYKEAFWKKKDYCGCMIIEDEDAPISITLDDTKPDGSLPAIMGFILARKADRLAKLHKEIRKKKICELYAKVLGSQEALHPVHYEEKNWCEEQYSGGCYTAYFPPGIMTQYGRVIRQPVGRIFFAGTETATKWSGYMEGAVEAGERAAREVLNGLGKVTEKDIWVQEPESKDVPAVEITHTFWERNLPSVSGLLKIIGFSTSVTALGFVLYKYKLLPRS
Put plainly: MAO-A/B Activity and Inhibition Assay.
Description: (§1) The reaction mixtures contained 50 mM HEPES (pH 7.5), 0.1 mM 4-aminoantipyrine, 1 mM 3,5-dichloro-2-hydroxybenzenesulfonic acid, 0.04 mg/mL horseradish peroxidase, and appropriate concentration of buffered substrate (tyramine).

The target of assay [3] is T2, Amine oxidase [flavin-containing] B (Homo sapiens, UniProt P27338).
T2 sequence (P27338 whole entry): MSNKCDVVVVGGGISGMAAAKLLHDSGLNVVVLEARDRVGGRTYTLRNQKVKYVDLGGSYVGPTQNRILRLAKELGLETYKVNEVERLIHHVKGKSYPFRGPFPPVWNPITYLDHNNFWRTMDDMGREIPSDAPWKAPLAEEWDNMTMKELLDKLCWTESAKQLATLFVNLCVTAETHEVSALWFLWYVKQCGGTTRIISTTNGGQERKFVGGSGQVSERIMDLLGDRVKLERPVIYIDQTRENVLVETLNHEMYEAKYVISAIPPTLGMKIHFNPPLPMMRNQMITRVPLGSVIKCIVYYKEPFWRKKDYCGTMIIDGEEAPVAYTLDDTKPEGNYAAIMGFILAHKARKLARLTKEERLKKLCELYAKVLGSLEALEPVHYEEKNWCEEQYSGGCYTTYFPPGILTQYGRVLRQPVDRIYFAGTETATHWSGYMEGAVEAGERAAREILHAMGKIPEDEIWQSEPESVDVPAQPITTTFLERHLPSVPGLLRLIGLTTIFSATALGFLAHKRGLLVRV
Put plainly: MAO-A/B Activity and Inhibition Assay.
Description: as §1

Structures can show the parent of a compound that is named as a salt.

In assay [1], `NNCCCCc1ccccc1` [(4-Phenylbutyl)hydrazine dihydrochloride salt (9h)] showed a Ki of 22000 nM.

Take `NNCCc1ccc(NC(=O)CCc2c[nH]c3ccccc23)cc1` [N-[4-(2-Hydrazinylethyl)phenyl]-3-(1H-indol-3-yl)propanamide sulfate salt (15a)]: the inhibition constant (Ki) in assay [1] turned out to be 210 nM.

In assay [1], `NNCCc1ccc(NC(=O)CCc2ccccc2)cc1` [N-[4-(2-Hydrazinylethyl)phenyl]-3-phenylpropanamide sulfate salt (12c)] showed a Ki of 260 nM.

Take `NNCCc1ccc(N(Cc2ccccc2)C(=O)CCCc2ccccc2)cc1` [N-Benzyl-N-[4-(2-hydrazinylethyl)phenyl]-4-phenylbutanamide oxalate salt (12m)]: affinity in assay [1] was put at a Ki of 1600 nM.

In assay [1], `NNCCc1ccc(NC(=O)Cc2ccccc2)cc1` [N-[4-(2-Hydrazinylethyl)phenyl]-2-phenylacetamide dihydrochloride salt (12b)] gave a Ki of 370 nM.

The molecule `COc1ccc(CCCC(=O)Nc2ccc(CCNN)cc2)cc1` [N-[4-(2-Hydrazinylethyl)phenyl]-4-(4-methoxyphenyl)butanamide sulfate salt (12h)] yielded a Ki in assay [1] of 207 nM.

In assay [1], `NNCCc1ccc(NC(=O)c2ccccc2)cc1` [N-[4-(2-Hydrazinylethyl)phenyl]benzamide dihydrochloride salt (12a)] showed a Ki of 280 nM.

As to `NNCCc1ccc(NC(=O)CCCc2ccc([N+](=O)[O-])cc2)cc1` [N-[4-(2-Hydrazinylethyl)phenyl]-4-(4-nitrophenyl)butanamide sulfate salt (12i)], the Ki in assay [1] turned out to be 282 nM.

Regarding `CS(=O)(=O)Oc1cccc(CCC(=O)Nc2ccc(CCNN)cc2)c1` [3-(3-{[4-(2-Hydrazinylethyl)phenyl]amino}-3-oxopropyl)phenyl methanesulfonate oxalate salt (12k)], affinity in assay [1] was put at a Ki of 223 nM.

For the molecule `NNCCCc1ccc(OCc2ccccc2)cc1` [{3-[4-(Benxyloxy)phenyl]propyl}hydrazine dihydrochloride salt (14)], in assay [1], the Ki amounted to 900 nM.

In assay [1], `NNCCc1ccc(NC(=O)CCCc2ccc(Cl)cc2)cc1` [4-(4-Chlorophenyl)-N-[4-(2-hydrazinylethyl)phenyl]butanamide sulfate salt (12f)] registered a Ki of 156 nM.

`NNCCCOc1ccccc1` [(3-Phenoxypropyl)hydrazine dihydrochloride salt (10b)]: in assay [1], the inhibition constant Ki was 12000 nM.

Regarding `NNCCc1ccc(NC(=O)CCCCc2ccccc2)cc1` [N-[4-(2-Hydrazinylethyl)phenyl]-5-phenylpentanamide oxalate salt (12e)], the inhibitory constant (Ki) in assay [1] is 260 nM.

For the molecule `CN(C(=O)CCCc1ccccc1)c1ccc(CCNN)cc1` [N-[4-(2-Hydrazinylethyl)phenyl]-N-methyl-4-phenylbutanamide oxalate salt (12l)], the inhibition constant Ki in assay [1] came to 2000 nM.

`NNCCc1ccc(NC(=O)/C=C/c2ccccc2)cc1` [(2E)-N-[4-(2-Hydrazinylethyl)phenyl]-3-phenylprop-2-enamide sulfate salt (13)]: in assay [1], the Ki came out at 100 nM.

`CS(=O)(=O)Oc1ccccc1CCC(=O)Nc1ccc(CCNN)cc1` [2-(3-{[4-(2-Hydrazinylethyl)phenyl]amino}-3-oxopropyl)phenyl methanesulfonate oxalate salt (12j)] displayed a Ki in assay [1] of 204 nM.

For `COc1ccc(CCCNN)cc1` [[3-(4-Methoxyphenyl)propyl]hydrazine dihydrochloride salt (9e)], the affinity in assay [1] corresponds to a Ki of 8000 nM.

`NNCCOc1ccccc1` [(2-Phenoxyethyl)hydrazine dihydrochloride salt (10a)] yielded a Ki in assay [1] of 44000 nM.

For the molecule `NNCCCc1ccccc1` [(3-Phenylpropyl)hydrazine dihydrochloride salt (9c)], the Ki in assay [1] is 5000 nM.

Consider `NNCCc1ccc(NC(=O)CCCc2ccccc2)cc1` [N-[4-(2-Hydrazinylethyl)phenyl]-4-phenylbutanamide dihydrochloride salt (12d)], for which the inhibitory constant (Ki) in assay [2] is 2600 nM; in assay [3] it was 6500 nM.

Usually Ki stands for a measure of affinity in units of concentration, obtained from inhibition or displacement. A higher Ki goes with a looser hold on the target.
